This note sets out measurements from US9018383B2, “Acylamino-substituted cyclic carboxylic acid derivatives and their use as pharmaceuticals” (Sanofi, priority 2009, dated 2015).

Chain of human Edg-2 receptor (Q92633 whole entry): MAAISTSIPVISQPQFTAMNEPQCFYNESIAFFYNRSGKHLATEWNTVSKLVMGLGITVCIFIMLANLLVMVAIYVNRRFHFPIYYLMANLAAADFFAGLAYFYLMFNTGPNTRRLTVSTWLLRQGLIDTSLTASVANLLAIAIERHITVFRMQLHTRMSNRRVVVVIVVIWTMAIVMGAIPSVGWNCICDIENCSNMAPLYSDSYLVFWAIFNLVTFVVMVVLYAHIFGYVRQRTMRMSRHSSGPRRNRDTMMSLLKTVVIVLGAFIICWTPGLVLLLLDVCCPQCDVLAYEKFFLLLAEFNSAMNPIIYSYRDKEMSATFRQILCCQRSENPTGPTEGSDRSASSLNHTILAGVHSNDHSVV

The experiment concerns the target human Edg-2 receptor (Homo sapiens, UniProt Q92633). The experiment is described as follows: Determination of Edg-2 receptor inhibition by FLIPR measurements (LPA-mediated calcium liberation). The experiment is classed as cell-based. To be noted: CHO cells overexpressing human Edg-2 receptor, LPA 100 nM, fluo-4 calcium fluorescence; read-out: Inhibitory concentrations IC50 for inhibition of the Edg-2 receptor. In outline: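 CHO cells stably overexpressing human Edg-2, loaded with fluo-4 AM, were pre-incubated ~5 min with compound (≤0.3% DMSO), then stimulated with 100 nM LPA 18:1 in HBSS/HEPES/probenecid, pH 7.5. Peak calcium fluorescence over ~3 min, baseline-corrected, versus DMSO gave % inhibition; IC50 from triplicates.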
As to `CC[C@H]1CC[C@@](NC(=O)c2ccc(OCCO)c(OCCc3cccc(Cl)c3)c2)(C(=O)O)CC1` [Example 418, trans-1-[3-[2-(3-Chloro-phenyl)-ethoxy]-4-(2-hydroxy-ethoxy)-benzoylamino]-4-ethyl-cyclohexanecarboxylic acid], the IC50 was less than 100 nM. With `C[C@H]1CC[C@](NC(=O)c2ccc(OCCO)c(OCCc3ccccc3)c2)(C(=O)O)CC1` [Example 421, cis-1-[4-(2-Hydroxy-ethoxy)-3-phenethyloxy-benzoylamino]-4-methyl-cyclohexanecarboxylic acid], the IC50 is 100 to 1000 nM. Consider `COc1ccc(C(=O)NC2(C(=O)O)CCCCCC2)cc1OCCc1cccc(Cl)c1` [Example 10], for which the IC50 was less than 100 nM. Take `O=C(NC1(C(=O)O)CCCCCC1)c1ccc(OCCO)c(OCCc2cccc(Cl)c2)c1` [Example 121, 1-[3-[2-(3-Chloro-phenyl)-ethoxy]-4-(2-hydroxy-ethoxy)-benzoylamino]-cycloheptane-carboxylic acid]: the IC50 fell in the range of 100 to 1000 nM. Turning to `COc1ccc(C(=O)NC2(C(=O)O)CCC(C(C)(C)C)CC2)cc1OCCc1cccc(C)c1` (stereo not drawn) [Example 371], the IC50 is 100 to 1000 nM. Take `COc1ccc(-c2cc(C(=O)N[C@]3(C(=O)O)CC[C@H](C(F)(F)F)CC3)cc(F)c2OC)cc1Cl` [Example 448, Cis-1-[(3′-Chloro-5-fluoro-6,4′-dimethoxy-biphenyl-3-carbonyl)-amino]-4-trifluoromethyl-cyclohexanecarboxylic acid]: the IC50 is less than 100 nM. With `COc1ccc(C(=O)NC2(C(=O)O)CCCCC2)cc1OCCc1cccc(C)c1` [Example 38], the IC50 was in the range of 100 to 1000 nM. The figure for `COc1ccc(C(=O)NC2(C(=O)O)CCCC2C)cc1OCCc1cccc(C)c1` (stereo not drawn) [Example 49] is 1000 to 30000 nM; for `CC[C@H]1CC[C@](NC(=O)c2cc(OCCc3cccc(C)c3)c3c(c2)OCO3)(C(=O)O)CC1` [Example 134, cis-4-Ethyl-1-{[7-(2-m-tolyl-ethoxy)-benzo[1,3]dioxole-5-carbonyl]-amino}-cyclohexanecarboxylic acid] it is less than 100 nM; for `COc1ncc(C(=O)N[C@]2(C(=O)O)CC[C@@H](C)CC2)cc1OCCc1cccc(Cl)c1` [Example 85, trans-1-({5-[2-(3-chloro-phenyl)-ethoxy]-6-methoxy-pyridine-3-carbonyl}-amino)-4-methyl-cyclohexanecarboxylic acid] it is less than 100 nM. For `COc1ncc(C(=O)N[C@]2(C(=O)O)CC[C@H](C(F)(F)F)CC2)cc1-c1cccc(Cl)c1Cl` [Example 378], the IC50 is less than 100 nM. Regarding `COc1ccc(C(=O)NC2(C(=O)O)CCCCCC2)cc1-c1cccc(C(C)C)c1` [Example 105], the IC50 was in the range of 100 to 1000 nM. As to `CC[C@H]1CC[C@@](NC(=O)c2ccc(OC)c(-c3cccc(C(F)(F)F)c3)c2)(C(=O)O)CC1` [Example 332], the IC50 is less than 100 nM. The figure for `COc1ccc(C(=O)NC2(C(=O)O)CCCCCC2)cc1OCC(C)c1ccccc1` (stereo not drawn) [Example 9] is less than 100 nM. With `C[C@H]1CC[C@](NC(=O)c2ccc(CCCO)c(-c3cccc(C(F)(F)F)c3)c2)(C(=O)O)CC1` [Example 434, cis-1-{[6-(3-Hydroxy-propyl)-3′-trifluoromethyl-biphenyl-3-carbonyl]-amino}-4-methyl-cyclohexanecarboxylic acid], the IC50 fell in the range of 100 to 1000 nM.

As for `COc1ccc(C(=O)NC2(C(=O)O)CCOCC2)cc1OCCc1cccc(C)c1` [Example 37], the IC50 is 1000 to 30000 nM.

On to `COc1ccc(C(=O)NC2(C(=O)O)CCCCCC2)cc1OCCc1cccc(C2COC2)c1` [Example 129, 1-{4-Methoxy-3-[2-(3-oxetan-3-yl-phenyl)-ethoxy]-benzoylamino}-cycloheptanecarboxylic acid], for which the IC50 is 100 to 1000 nM. In the case of `COc1ncc(C(=O)N[C@]2(C(=O)O)CC[C@H](C(F)(F)F)CC2)cc1-c1cccc(OC(F)(F)F)c1` [Example 379], the IC50 was less than 100 nM. For `Cc1cccc(CCOc2cc(C(=O)NC3(C(=O)O)CCCCCC3)ccc2C(C)F)c1` (stereo not drawn) [Example 63, 1-[4-(1-Fluoro-ethyl)-3-(2-m-tolyl-ethoxy)-benzoylamino]-cycloheptanecarboxylic acid], the IC50 is less than 100 nM. Consider `COc1ncc(C(=O)NC2(C(=O)O)CCCCCC2)cc1-c1cccc(C(F)(F)F)c1` [Example 100], for which the IC50 is less than 100 nM.

On to `COc1ncc(C(=O)NC2(C(=O)O)CCCCCC2)cc1-c1cccc(C#N)c1` [Example 92, 1-{[5-(3-Cyano-phenyl)-6-methoxy-pyridine-3-carbonyl]-amino}-cycloheptanecarboxylic acid], for which the IC50 is 1000 to 30000 nM. The figure for `COc1ccc(C(=O)NC2(C(=O)O)CCCC2OC)cc1OCCc1cccc(C)c1` (stereo not drawn) [Example 68, 2-Methoxy-1-[4-methoxy-3-(2-m-tolyl-ethoxy)-benzoylamino]-cyclopentanecarboxylic acid] is less than 100 nM. As to `COc1ccc(C(=O)NC2(C(=O)O)CCCCCC2)cc1OCCc1cccc(F)c1` [Example 365], the IC50 lay in the range of 100 to 1000 nM. With `COc1ccc(C(=O)NC2(C(=O)O)CCCCCC2)cc1OCC1(c2ccccc2)COC1` [Example 22], the IC50 is less than 100 nM. Then `CC[C@H]1CC[C@](NC(=O)c2cc(F)c(OCCO)c(-c3ccc(F)c(F)c3)c2)(C(=O)O)CC1` [Example 384], with less than 100 nM; and `COc1ccc(C(=O)N[C@]2(C(=O)O)CC[C@@H](C)CC2)cc1-c1c(F)cc(OC)c(Cl)c1F` [Example 445, 1-[(3′-Chloro-2′,6′-difluoro-6,4′-dimethoxy-biphenyl-3-carbonyl)-amino]-4-methyl-cyclohexanecarboxylic acid], with less than 100 nM; and `CC[C@H]1CC[C@@](NC(=O)c2cnc(OC)c(-c3ccc(OC)c(F)c3)c2)(C(=O)O)CC1` [Example 412], with less than 100 nM. Then `CC(=O)c1ccc(C(=O)NC2(C(=O)O)CCCCCC2)cc1OCCc1cccc(C)c1` [Example 60, 1-[4-Acetyl-3-(2-m-tolyl-ethoxy)-benzoylamino]-cycloheptanecarboxylic acid], with 100 to 1000 nM.

Regarding `Cc1cccc(CCOc2cc(C(=O)N[C@]3(C(=O)O)CC[C@H](C(F)(F)F)CC3)ccc2C2COC2)c1` [Example 131, cis-1-[4-Oxetan-3-yl-3-(2-m-tolyl-ethoxy)-benzoylamino]-4-trifluoromethyl-cyclohexanecarboxylic acid], the IC50 was less than 100 nM. The figure for `COc1ccc(-c2cc(C(=O)N[C@]3(C(=O)O)CC[C@@H](C)CC3)ccc2OC2CC(F)(F)C2)cc1Cl` [Example 443, Trans-1-{[3′-Chloro-6-(3,3-difluoro-cyclobutoxy)-4′-methoxy-biphenyl-3-carbonyl]-amino}-4-methyl-cyclohexanecarboxylic acid] is 100 to 1000 nM. As to `CCC1CC1(NC(=O)c1ccc(OC)c(OCCc2cccc(C)c2)c1)C(=O)O` (stereo not drawn) [Example 41], the IC50 is less than 100 nM.

On to `COc1ccc(C(=O)NC2(C(=O)O)CCCCCCC2)cc1OCCc1cccc(CCO)c1` [Example 108, 1-(3-{2-[3-(2-Hydroxy-ethyl)-phenyl]-ethoxy}-4-methoxy-benzoylamino)-cyclooctanecarboxylic acid], for which the IC50 was less than 100 nM. Then `COc1ccc(C(=O)NC2(C(=O)O)CCCCCC2)cc1-c1cccc(C#N)c1` [Example 106], with 1000 to 30000 nM.
